Results from patent US9512407B2, “Cells and methods for obtaining them” (GENOME RESEARCH LIMITED, priority 2009, dated 2016).
“Also recorded” adds a separate entry of the source.

Key:
Oct4-IRES-Puro-Egfp MEFs = assay: Reprogramming of Oct4 reporter MEFs to iPSCs by PB transposition of Yamanaka factors (colony number); type: cell-based, mouse
Text: To investigate the role of RA signalling in reprogramming, we cloned cDNAs of Oct4, Sox2, Klf4, cMyc, Rara and Rarg into a PB-MSCV vector where expression of the cDNAs was controlled by the MSCV LTR (FIG. 6A). Although exogenous c-Myc is not essential for reprogramming, omission of it reduces reprogramming efficiency and delays the process (23, 30). The individual PB-MSCV-cDNA vectors were co-transfected with a PB transposase plasmid into MEFs (FIG. 1A). PB transposition facilitates efficient integration of the PB transposon into the genome, thus ensuring stable expression of the cDNAs (31).
(§1) ES cell pluripotency requires proper levels of Oct4 (Pou5f1) expression (32), and activation of Oct4 is known to be a crucial event in reprogramming (3). To monitor activation of the endogenous Oct4 locus in reprogramming and to allow unbiased assessment of iPSC quality, we made an Oct4 reporter mouse line where the IRES-Puro-GFP cassette was targeted to the 3′UTR of the Oct4 locus (FIG. 6B). The targeted ES cells were resistant to 2.0 μg/ml Puromycin (Puro) selection. These ES cells were not visibly green under fluorescent microscope but could be distinguished by flow cytometry (FIG. 6C). […] MEFs from the Oct4 reporter mice were thus used in all the MEF reprogramming experiments, and consequently, reprogramming and iPSC quality could be conveniently monitored and assessed by either Puro resistance or GFP expression in iPSCs.
MEFs were prepared from 12.5 d.p.c. Oct4-IRES-Puro-Egfp embryos. To reduce embryo-to-embryo difference, MEFs from several embryos with the same genotype were mixed together for expansion in M10 media. MEFs were passaged once before they were counted, aliquoted and frozen down. Before electroporation, 1×10^6 MEFs were plated onto one gelatinized 15-cm tissue culture plate. When MEFs were 70-80% confluent, they were typsinized and collected for electroporation. M10: knockout DMEM, 10% foetal bovine serum (FBS, Hyclone), 1×GPS, 1× non-essential amino acids (NEAA, Invitrogen).
MEFs transfection was performed using an Amaxa machine (Lonza) according to the manufacturer's protocol (program A-023). After electroporation, MEFs were seeded in M15 plus LIF on STO feeders. For Tet-On experiments, M15 containing Doxycycline (1.0 μg/ml) was added 24 hours after transfection and was changed every other day. iPSC colonies were usually picked at day 7 to day 10 to 96 well plates and cells were expanded according to standard mouse ES cell culture conditions.
Mouse and human iPSC colonies were visualized by alkaline phosphatase staining using the Leukocyte Alkaline Phosphatase kit (Sigma).
FIG. 1. RA signalling in reprogramming. A. Schematic of the reprogramming strategy by piggyBac (PB) transposition. Oct4 reporter MEFs were transfected with the PB-MSCV-cDNA transposon and transposase plasmids, and were plated directly onto STO feeders. ES-like colonies usually appeared in three weeks. M10 and M15 are media for MEFs and ES cells, respectively. B-C. Expressing Rara or Rarg, together with the four Yamanaka factors, drastically promoted reprogramming while inhibiting RA signalling by expressing Rara-DN blocked reprogramming. iPSC colonies were visualized by alkaline phosphatase staining. The reprogramming control was PB-PGK-Neo plus Yamanaka factors. **: P<0.005; ***: P<0.0005. FL: full-length cDNA; DN: dominant-negative form. D. Temporal requirement of RA signalling in reprogramming. Agonist of Rarg (CD437) was added at various stages of reprogramming. […]

Oct4 locus = assay: iPSC quality by Puro resistance and GFP expression from the Oct4 locus (flow cytometry); type: cell-based, mouse; settings: for quality of iPS cells, measured by FACS: agonist with four Yamanaka factors, up to 8 days
Procedure: as §1
Expression of the endogenous Oct4 is unstable in iPSCs reprogrammed by the four Yamanaka factors (11). […] Further analysis confirmed their partially reprogrammed status: low levels of endogenous pluripotency gene expression (FIG. 1E), and retention of substantial DNA methylation in the differentially methylated regions (DMRs) in the Nanog and Rex1 promoters (FIG. 1F). On the other hand, a small number of colonies were obtained which were resistant to 2.0 μg/ml Puro, and were similar to ES cells regarding pluripotency gene expression, demethylation at the Nanog and Rex1 promoters, and GFP expression (FIG. 1E-F and FIG. 6E). […] In subsequent experiments, we used resistance to 2.0 μg/ml Puro or GFP expression as surrogate criteria for pluripotency quality of mouse primary iPSCs reprogrammed from Oct4-Puro-GFP MEFs.
Mouse iPSCs growing in 96 well feeder plates were trypsinized and resuspended in M15. iPSCs were spun down at 1,000 rpm for 3 minutes, and the medium was removed by putting the plate upside down on tissue. iPSCs were resuspended in PBS and analyzed by Cytomics FC-500 (Beckman Coulter).
We cloned the four Yamanaka factors into the PB transposons separately where expression of each cDNA was controlled by the LTR of MSCV (PB-MSCV-cDNAs, FIG. 6c). These four transposons and the PB transposase (PBase) plasmid were subsequently transfected into Oct4-IRES-Puro-Egfp MEFs. iPS cell colonies resembling those of regular ES cells appeared in three weeks. Most iPS colonies survived 1.0 or 1.5 μg/ml Puro but very few were able to grow in 2.0 μg/ml Puro. […] RT-PCR and DMR sequencing confirmed that these iPS clones growing in 2.0 μg/mL Puro were more similar to regular ES cells than those clones selected by 1.0 or 1.5 μg/mL Puro in terms of pluripotent gene expression and DNA methylation at promoters of these genes (data not shown). […] We thus used 2.0 μg/mL or higher concentration of Puro in combination of flow cytometry to quantitatively evaluate iPS cell quality in the subsequent experiments.

[1] = test system: Rex1-Puro-IRES-Egfp knock-in mouse ES cell line; assay: RA induced ES cell differentiation, Puro selection; type: cell-based; settings: all-trans retinoic acid; antagonist added or cDNA over-expressed
Text: Insertion of this transposon into the mouse genome can either up-regulate genes near the insertion sites or disrupt them, depending on the structure of the insertion allele. To efficiently eliminate differentiated ES cells in the culture, we targeted the Puro-IRES-Egfp cassette to the Rex1 locus (FIG. 12b). Consequently, undifferentiated ES cells would be resistant to Puromycin (Puro) selection and GFP^+ in flow cytometry, while differentiated cells would be killed by Puro selection and become GFP^− due to rapid lose of Rex1 expression upon differentiation.
A library of mutant ES cells were differentiated with 1.0 μM all-trans retinoic acid (RA) for 4 days and subsequently selected with Puromycin (FIG. 12c). Several Pura^r ES cell clones were identified from independent mutant ES cell pools. Splinkrette PCR analysis identified PB integration sites in genes encoding Rarg, Pparg and Gclc. For Pparg, PB insertion caused over-expression of the entire protein coding sequences. In contrast, Rarg locus had four independent PB insertions, all found in intron 9 (the last intron) (FIG. 12d). These PB insertions caused truncation of Rarg which misses amino acids encoded by exon 10. […] This truncated Rarg likely functioned as a dominant negative form of wild type Rarg (Rarg-DN).
FIG. 12. […]

[2] = test system: Dox-independent human iPSCs; assay: Signalling dependency of human iPSCs (growth, qRT-PCR); type: cell-based; settings: KSR-2i-LIF media
Procedure: In contrast to dependence on Lif/Jak/Stat pathway for pluripotency maintenance in mouse ES cells, conventional human ES cells derived from embryos are cultured in media containing FGF2 (basic FGF), and LIF alone is insufficient to maintain pluripotency (44, 45). […] Conventional human ES cells are resistant to JAK inhibitor (JAKi) but are differentiated in the presence of BMP4. […] Finally, compared to human ES cells, our human iPSCs expressed lower levels of lineage specific genes such as PAX6, GATA6, and SOX17 in KSR-2i-LIF media (FIG. 5H).
Human iPSCs reprogrammed by PB-CAG vectors were cultured in M15 media, with […] human recombinant LIF. Human iPSCs reprogrammed by PB-TRE vectors were maintained in DMEM/F12 with 1×GPS (Invitrogen), 20% Knockout Serum Replacement (Invitrogen), 1×NEAA, 0.1 mM β-mercaptoethanol (β-ME, Sigma) and two inhibitors, CHIR99021 (5 μM) and PD0325901 (1 μM).
RNA was isolated using the RNeasy Mini Kit (Qiagen). The samples were subsequently quantified and treated with gDNA WipeOut. First-strand cDNA was prepared using the QuantiTect Reverse Transcription Kit (Qiagen). For each RT-PCR reaction, we used 50-100 ng of cDNA and primers listed in Supplementary Table 5. Standard PCR conditions were: 94° C. for 30 s, 60° C. for 30 s, 68° C. for 30 s; X 30 cycles. For real-time PCR, we used Taqman Gene Expression Assays. Taqman probes were either purchased from Applied Biosciences (Supplementary Table 6). All quantitative PCR was performed in a […] Fast Real-Time PCR System (Applied Biosciences). Mouse gene expression was determined relative to mouse Gadph using the ΔCt method. Human gene expression was determined relative to human GADPH gene using the ΔCt method.
FIG. 5. Production and characterization of Dox-independent unique human iPSCs. A. Conservation of RAREoct sequence in several mammalian species. B. Reprogramming HDFn cells using the Tet-On six-factor platform. PB-TRE-cDNA transposon, PB-CAG-rtTA and transposase plasmids were transfected into HDFs which were plated onto STO feeders. Dox (2.0 μg/ml) was added 24 hours post transfection. Dox induction usually lasted for 15-20 days. Colonies were picked for expansion at up to 30 days after transfection. Alternatively, immediately once Dox was removed, colonies were trypsinized and re-plated to a new feeder plate for secondary colony formation. C. Typical human iPSC colony morphology and AP staining. Scale bars: 10.0 μm. D. qRT-PCR analysis of pluripotency genes in parental HDFn, human iPSCs and H1 hESC cells. HiPS15-5 and -10 were two Dox-independent iPSC lines generated from one transfection. […] H. Signalling dependency of human iPSCs measured by gene expression (qRT-PCR). […] Quantitative analysis of gene expression was performed relative to GADPH. […]

## CC1(C)CCC(C)(C)c2cc(C(=O)Nc3ccc(C(=O)O)cc3)ccc21 [Am580]
Oct4-IRES-Puro-Egfp MEFs; administrated for 8 days, with four Yamanaka factors
  reprogramming efficiency: improved reprogramming efficiency
Oct4 locus
  quality of iPS cells, measured by FACS: little effect

## O=C(O)c1ccc2cc(-c3ccc(O)c(C45CC6CC(CC(C6)C4)C5)c3)ccc2c1 [CD437]
Oct4-IRES-Puro-Egfp MEFs; 100 nM for up to eight day, with four Yamanaka factors
  iPS cell colony number: greatly increased
Oct4-IRES-Puro-Egfp MEFs; added to culture media at recommended concentration for 4 or 8 days, with four Yamanaka factors
  reprogramming of MEFs to iPSCs: drastically increased
Oct4-IRES-Puro-Egfp MEFs; treatment beyond 8 days (day 1-12)
  iPS colony number: substantially reduced
Oct4-IRES-Puro-Egfp MEFs; treatment beyond 8 days after transfection
  reprogramming efficiency: reduced reprogramming efficiency
Oct4 locus; CD437 day 1-4
  GFP expression from the Oct4 locus in colonies (iPSC quality): expressed GFP; also recorded: Improvement of iPSC quality
Oct4 locus; CD437 day 1-4, 2.0 μg/ml Puro
  survival of Puro selection: survived 2.0 μg/ml Puro selection
Oct4 locus
  quality of iPS cells, measured by FACS: significantly improved

## COCCOCOc1cc2ccc(-c3ccc(C(=O)O)cc3)cc2cc1C12CC3CC(CC(C3)C1)C2 [CD2665]
[1]
  ES cell differentiation induced by RA: block ES cell differentiation
Oct4 locus; 10 μM, two independent partially reprogrammed clones
  quality of partially reprogrammed clones: significantly improved
Oct4 locus; 10 μM, used together with 5-Aza
  effect on quality of partially reprogrammed clones: more obvious
Oct4 locus; after treatment for 4 days, with or without 5-Aza
  GFP status of partially reprogrammed clones: largely GFP negative

## CC(C)(C)c1nc2c3cc[nH]c(=O)c3c3cc(F)ccc3c2[nH]1 [JAK inhibitor]
[2]
  growth and pluripotency gene expression of human iPSCs in the presence of the agent: lost expression of OCT4 and NANOG and were rapidly differentiated

## CCCCCCCOc1cc2c(cc1/C(C)=C/c1ccc(C(=O)O)cc1)C(C)(C)CCS2(=O)=O [Ro-41-5253]
[1]
  ES cell differentiation induced by RA: block ES cell differentiation

## Cc1c[nH]c(/C=C2\C(=O)Nc3ccccc32)c1CCC(=O)O [SU54021]
[2]
  growth and pluripotency gene expression of human iPSCs in the presence of the agent: grew well and kept pluripotency gene expression
[2]; listed as FGFRi
  growth and pluripotency gene expression of human iPSCs in the presence of the agent: Robust expression of pluripotency genes

## BMP4: BMP4 added to human iPSC culture
[2]
  growth and pluripotency gene expression of human iPSCs in the presence of the agent: proliferated well
